The source of these data is PMC5686591, “Identification and Characterization of the Major Porin of Desulfovibrio vulgaris Hildenborough” (Journal of Bacteriology, 2017).

SMILES strings stand for the structures.

The assay has as its target T1, DVU0799 (Nitratidesulfovibrio vulgaris, UniProt Q72DY0).
T1 construct: gene DVU_0799; native protein purified from wild-type outer membranes (octyl glucoside), untagged; monomer about 50 kDa, homotrimer; reconstituted in proteoliposomes
T1 sequence (Q72DY0 24-466): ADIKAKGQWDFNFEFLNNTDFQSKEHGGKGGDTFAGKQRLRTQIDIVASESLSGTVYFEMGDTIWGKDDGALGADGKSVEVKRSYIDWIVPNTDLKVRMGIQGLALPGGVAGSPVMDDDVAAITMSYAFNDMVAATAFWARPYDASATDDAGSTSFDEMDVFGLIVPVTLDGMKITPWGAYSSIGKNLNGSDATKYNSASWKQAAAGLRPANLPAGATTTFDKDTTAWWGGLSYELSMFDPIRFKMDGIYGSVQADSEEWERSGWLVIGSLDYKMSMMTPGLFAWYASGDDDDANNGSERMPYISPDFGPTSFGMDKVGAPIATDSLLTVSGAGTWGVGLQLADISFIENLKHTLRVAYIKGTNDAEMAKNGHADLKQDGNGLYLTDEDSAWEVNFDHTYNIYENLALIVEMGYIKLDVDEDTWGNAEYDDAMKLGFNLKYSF
In words: liposome swelling assay (OD400), reconstituted proteoliposomes. In kind it is biochemical. The settings on record: pore permeation (passive diffusion).

On to `O=C(O)[C@H](O)[C@@H](O)[C@H](O)[C@H](O)CO` [D-gluconate], for which, under “relative to L-arabinose, 9 mM solute, 4 mM sodium NAD, 1 mM imidazole-NAD, pH 6.0”, the relative permeability entry was “purified DVU0799 were also surveyed for their permeability to two sugar acids, D-gluconate”.

Regarding `OC1OC[C@H](O)[C@H](O)[C@H]1O` (stereo partly drawn) [L-arabinose], where the note is “scaling reference of the assay, about 20 mM solute”, the relative permeability result is “the permeability profile begins with that for L-arabinose at the upper limit”.
